Experimental data reported in ChEMBL document CHEMBL4806968, “Hipk inhibitors and methods of use thereof” (2020).
The source made the active and inactive calls. The calls are words filed in the database; no cut-off is given here.

Key:
[1] = biological target: Homeodomain-interacting protein kinase 3 (Homo sapiens) (UniProt Q9H422); assay: Inhibition of HIPK3 (unknown origin) assessed as effect on HIPK3 protein level by Western blotting analysis
[2] = test system: MDA-MB-231; assay: Inhibition of HIPK4 protein expression in human MDA-MB-231 cells by Western blotting analysis; assay type: functional, cell-based
[3] = biological target: Mitogen-activated protein kinase kinase kinase kinase 5 (Homo sapiens) (UniProt Q9Y4K4); assay: Inhibition of MAP4K5 (unknown origin) at 0.5 uM relative to control
[4] = test system: MDA-MB-231; assay: Inhibition of FAK/pFAK protein expression in human MDA-MB-231 cells by Western blotting analysis; assay type: functional, cell-based
[5] = biological target: Homeodomain-interacting protein kinase 1 (Homo sapiens) (UniProt Q86Z02); assay: Inhibition of HIPK1 (unknown origin) assessed as effect on HIPK1 protein level by Western blotting analysis
[6] = biological target: T1, Tyrosine-protein kinase Mer (Homo sapiens) (UniProt Q12866); assay: Inhibition of MER (unknown origin) at 0.5 uM relative to control
T1 sequence (whole entry): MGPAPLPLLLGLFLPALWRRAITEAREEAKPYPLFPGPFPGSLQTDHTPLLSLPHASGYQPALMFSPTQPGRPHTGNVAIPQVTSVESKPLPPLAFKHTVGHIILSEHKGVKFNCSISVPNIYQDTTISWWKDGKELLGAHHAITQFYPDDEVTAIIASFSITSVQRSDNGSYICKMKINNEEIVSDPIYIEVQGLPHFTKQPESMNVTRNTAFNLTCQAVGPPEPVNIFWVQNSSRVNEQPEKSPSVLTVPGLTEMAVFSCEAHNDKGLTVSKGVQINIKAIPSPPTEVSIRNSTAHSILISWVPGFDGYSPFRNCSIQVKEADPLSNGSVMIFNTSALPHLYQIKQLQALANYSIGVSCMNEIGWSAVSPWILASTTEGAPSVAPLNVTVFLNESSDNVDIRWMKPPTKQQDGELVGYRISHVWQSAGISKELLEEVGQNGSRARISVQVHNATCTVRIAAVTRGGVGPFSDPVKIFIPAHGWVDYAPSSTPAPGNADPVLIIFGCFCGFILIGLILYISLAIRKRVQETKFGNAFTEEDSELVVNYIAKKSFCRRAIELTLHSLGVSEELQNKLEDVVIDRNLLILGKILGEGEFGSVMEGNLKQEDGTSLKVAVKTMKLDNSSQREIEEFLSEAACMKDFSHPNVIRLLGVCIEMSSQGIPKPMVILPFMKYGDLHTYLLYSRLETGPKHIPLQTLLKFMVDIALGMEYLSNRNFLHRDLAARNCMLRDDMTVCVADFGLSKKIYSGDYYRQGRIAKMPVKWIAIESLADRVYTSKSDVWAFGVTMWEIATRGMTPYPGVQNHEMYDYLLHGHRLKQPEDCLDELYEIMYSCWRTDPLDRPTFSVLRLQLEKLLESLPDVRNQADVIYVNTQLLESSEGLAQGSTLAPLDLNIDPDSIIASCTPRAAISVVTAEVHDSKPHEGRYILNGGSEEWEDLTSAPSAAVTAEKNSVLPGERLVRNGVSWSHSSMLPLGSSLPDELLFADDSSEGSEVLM

[7] = biological target: Vascular endothelial growth factor receptor 2 (Homo sapiens) (UniProt P35968); assay: Inhibition of KDR (unknown origin) at 0.5 uM relative to control
[8] = biological target: Ephrin type-A receptor 4 (Homo sapiens) (UniProt P54764); assay: Inhibition of EPHA4 (unknown origin) at 0.5 uM relative to control
[9] = biological target: MAP kinase-interacting serine/threonine-protein kinase 2 (Homo sapiens) (UniProt Q9HBH9); assay: Inhibition of MNK2 (unknown origin) at 0.5 uM relative to control
[10] = test system: MDA-MB-231; assay: Inhibition of cell migration in human MDA-MB-231 cells; assay type: functional, cell-based
[11] = biological target: Ephrin type-A receptor 5 (Homo sapiens) (UniProt P54756); assay: Inhibition of EPH-A5 (unknown origin) at 0.5 uM relative to control
[12] = species on record: Homo sapiens; assay: Inhibition of LYNA (unknown origin) at 0.5 uM relative to control
[13] = biological target: Angiopoietin-1 receptor (Homo sapiens) (UniProt Q02763); assay: Inhibition of TIE2 (unknown origin) at 0.5 uM relative to control
[14] = biological target: Ephrin type-A receptor 1 (Homo sapiens) (UniProt P21709); assay: Inhibition of EPHA1 (unknown origin) at 0.5 uM relative to control
[15] = biological target: Tyrosine-protein kinase ABL2 (Homo sapiens) (UniProt P42684); assay: Inhibition of ARG (unknown origin) at 0.5 uM relative to control
[16] = biological target: Platelet-derived growth factor receptor beta (Homo sapiens) (UniProt P09619); assay: Inhibition of PDGFR-beta (unknown origin) at 0.5 uM relative to control
[17] = biological target: Receptor-interacting serine/threonine-protein kinase 2 (Homo sapiens) (UniProt O43353); assay: Inhibition of RIPK2 (unknown origin) at 0.5 uM relative to control
[18] = biological target: Serine/threonine-protein kinase B-raf (Homo sapiens) (UniProt P15056); assay: Inhibition of BRAF (unknown origin) at 0.5 uM relative to control
[19] = biological target: Mitogen-activated protein kinase kinase kinase 10 (Homo sapiens) (UniProt Q02779); assay: Inhibition of MLK2 (unknown origin) at 0.5 uM relative to control
[20] = biological target: Tyrosine-protein kinase JAK1 (Homo sapiens) (UniProt P23458); assay: Inhibition of JAK1 (unknown origin) at 0.5 uM relative to control
[21] = biological target: SRSF protein kinase 3 (Homo sapiens) (UniProt Q9UPE1); assay: Inhibition of MSSK1 (unknown origin) at 0.5 uM relative to control
[22] = biological target: Mitogen-activated protein kinase 11 (Homo sapiens) (UniProt Q15759); assay: Inhibition of p38beta (unknown origin) at 0.5 uM relative to control
[23] = biological target: Mitogen-activated protein kinase 14 (Homo sapiens) (UniProt Q16539); assay: Inhibition of p38alpha (unknown origin) at 0.5 uM relative to control
[24] = biological target: Serine/threonine-protein kinase PLK4 (Homo sapiens) (UniProt O00444); assay: Inhibition of PLK4 (unknown origin) at 0.5 uM relative to control
[25] = biological target: Serine/threonine-protein kinase PLK2 (Homo sapiens) (UniProt Q9NYY3); assay: Inhibition of PLK2 (unknown origin) at 0.5 uM relative to control
[26] = biological target: Proto-oncogene tyrosine-protein kinase Src (Homo sapiens) (UniProt P12931); assay: Inhibition of SRC (unknown origin) at 0.5 uM relative to control
[27] = biological target: Inhibitor of nuclear factor kappa-B kinase subunit epsilon (Homo sapiens) (UniProt Q14164); assay: Inhibition of IKK-epsilon (unknown origin) at 0.5 uM relative to control
[28] = biological target: Eukaryotic translation initiation factor 2-alpha kinase 3 (Homo sapiens) (UniProt Q9NZJ5); assay: Inhibition of PERK (unknown origin) at 0.5 uM relative to control

Sequence of Angiopoietin-1 receptor (Homo sapiens) (Q02763 whole entry): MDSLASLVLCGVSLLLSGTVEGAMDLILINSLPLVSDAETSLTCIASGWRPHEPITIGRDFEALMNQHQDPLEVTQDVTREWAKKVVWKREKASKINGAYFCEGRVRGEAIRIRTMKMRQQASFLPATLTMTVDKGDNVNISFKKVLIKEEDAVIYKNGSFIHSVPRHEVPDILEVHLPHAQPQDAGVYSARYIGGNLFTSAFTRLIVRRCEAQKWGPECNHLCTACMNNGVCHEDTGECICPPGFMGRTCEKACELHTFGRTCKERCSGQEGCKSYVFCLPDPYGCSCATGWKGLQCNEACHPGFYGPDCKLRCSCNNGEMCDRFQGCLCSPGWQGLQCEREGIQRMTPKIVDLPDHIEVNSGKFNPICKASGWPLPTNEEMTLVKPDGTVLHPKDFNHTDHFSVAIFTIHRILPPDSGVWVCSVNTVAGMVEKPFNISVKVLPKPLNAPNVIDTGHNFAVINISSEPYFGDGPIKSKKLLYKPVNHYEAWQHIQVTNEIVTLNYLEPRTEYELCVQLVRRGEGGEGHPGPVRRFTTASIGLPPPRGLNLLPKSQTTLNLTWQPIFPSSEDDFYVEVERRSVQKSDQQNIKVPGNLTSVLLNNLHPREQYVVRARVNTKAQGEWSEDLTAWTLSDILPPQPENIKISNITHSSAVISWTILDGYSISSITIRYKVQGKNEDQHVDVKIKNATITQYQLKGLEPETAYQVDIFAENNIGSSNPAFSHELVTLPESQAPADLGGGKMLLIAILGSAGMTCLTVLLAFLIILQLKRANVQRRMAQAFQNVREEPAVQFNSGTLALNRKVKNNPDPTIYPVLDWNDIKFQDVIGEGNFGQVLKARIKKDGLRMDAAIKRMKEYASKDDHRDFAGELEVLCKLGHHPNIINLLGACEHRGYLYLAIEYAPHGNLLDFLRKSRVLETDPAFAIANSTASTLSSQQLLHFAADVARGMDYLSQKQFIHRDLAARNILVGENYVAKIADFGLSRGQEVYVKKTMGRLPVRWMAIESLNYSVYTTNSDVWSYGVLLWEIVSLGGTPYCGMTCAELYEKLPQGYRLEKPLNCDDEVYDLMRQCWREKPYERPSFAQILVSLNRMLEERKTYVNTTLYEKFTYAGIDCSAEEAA
Sequence of Vascular endothelial growth factor receptor 2 (Homo sapiens) (P35968 whole entry): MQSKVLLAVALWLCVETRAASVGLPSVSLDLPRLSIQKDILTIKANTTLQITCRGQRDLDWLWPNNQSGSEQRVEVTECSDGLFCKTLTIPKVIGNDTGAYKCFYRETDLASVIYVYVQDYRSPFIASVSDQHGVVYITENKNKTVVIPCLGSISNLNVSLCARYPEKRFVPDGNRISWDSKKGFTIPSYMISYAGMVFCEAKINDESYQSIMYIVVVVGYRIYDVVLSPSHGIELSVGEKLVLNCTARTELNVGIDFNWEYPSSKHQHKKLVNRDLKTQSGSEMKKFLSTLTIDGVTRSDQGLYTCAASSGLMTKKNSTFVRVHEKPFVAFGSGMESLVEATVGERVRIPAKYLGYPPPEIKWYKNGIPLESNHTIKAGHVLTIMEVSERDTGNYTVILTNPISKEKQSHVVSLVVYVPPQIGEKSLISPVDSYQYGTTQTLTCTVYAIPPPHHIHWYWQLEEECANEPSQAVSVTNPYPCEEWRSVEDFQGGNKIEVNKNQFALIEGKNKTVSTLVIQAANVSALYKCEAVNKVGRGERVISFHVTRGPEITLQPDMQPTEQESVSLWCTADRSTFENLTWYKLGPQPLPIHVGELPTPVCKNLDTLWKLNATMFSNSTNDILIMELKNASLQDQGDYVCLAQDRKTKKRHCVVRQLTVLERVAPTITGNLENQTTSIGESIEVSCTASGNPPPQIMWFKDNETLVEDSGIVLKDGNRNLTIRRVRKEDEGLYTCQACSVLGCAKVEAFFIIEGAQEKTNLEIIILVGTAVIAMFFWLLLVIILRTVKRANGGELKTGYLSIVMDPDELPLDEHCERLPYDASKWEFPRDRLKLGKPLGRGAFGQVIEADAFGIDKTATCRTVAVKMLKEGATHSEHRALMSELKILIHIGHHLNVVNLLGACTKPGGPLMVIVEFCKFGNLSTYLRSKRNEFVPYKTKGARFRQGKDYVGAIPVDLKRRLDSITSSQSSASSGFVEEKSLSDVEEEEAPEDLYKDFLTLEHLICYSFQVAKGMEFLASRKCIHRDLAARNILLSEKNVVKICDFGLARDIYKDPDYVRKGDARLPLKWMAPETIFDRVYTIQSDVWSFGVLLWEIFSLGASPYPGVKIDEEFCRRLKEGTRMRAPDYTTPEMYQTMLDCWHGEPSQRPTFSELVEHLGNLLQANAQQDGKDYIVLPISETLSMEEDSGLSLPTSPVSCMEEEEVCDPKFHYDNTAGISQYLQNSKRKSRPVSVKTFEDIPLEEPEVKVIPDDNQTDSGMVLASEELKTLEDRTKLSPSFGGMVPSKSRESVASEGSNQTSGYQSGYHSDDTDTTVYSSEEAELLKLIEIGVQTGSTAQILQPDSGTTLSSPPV
Sequence of Homeodomain-interacting protein kinase 1 (Homo sapiens) (Q86Z02 whole entry, looked up): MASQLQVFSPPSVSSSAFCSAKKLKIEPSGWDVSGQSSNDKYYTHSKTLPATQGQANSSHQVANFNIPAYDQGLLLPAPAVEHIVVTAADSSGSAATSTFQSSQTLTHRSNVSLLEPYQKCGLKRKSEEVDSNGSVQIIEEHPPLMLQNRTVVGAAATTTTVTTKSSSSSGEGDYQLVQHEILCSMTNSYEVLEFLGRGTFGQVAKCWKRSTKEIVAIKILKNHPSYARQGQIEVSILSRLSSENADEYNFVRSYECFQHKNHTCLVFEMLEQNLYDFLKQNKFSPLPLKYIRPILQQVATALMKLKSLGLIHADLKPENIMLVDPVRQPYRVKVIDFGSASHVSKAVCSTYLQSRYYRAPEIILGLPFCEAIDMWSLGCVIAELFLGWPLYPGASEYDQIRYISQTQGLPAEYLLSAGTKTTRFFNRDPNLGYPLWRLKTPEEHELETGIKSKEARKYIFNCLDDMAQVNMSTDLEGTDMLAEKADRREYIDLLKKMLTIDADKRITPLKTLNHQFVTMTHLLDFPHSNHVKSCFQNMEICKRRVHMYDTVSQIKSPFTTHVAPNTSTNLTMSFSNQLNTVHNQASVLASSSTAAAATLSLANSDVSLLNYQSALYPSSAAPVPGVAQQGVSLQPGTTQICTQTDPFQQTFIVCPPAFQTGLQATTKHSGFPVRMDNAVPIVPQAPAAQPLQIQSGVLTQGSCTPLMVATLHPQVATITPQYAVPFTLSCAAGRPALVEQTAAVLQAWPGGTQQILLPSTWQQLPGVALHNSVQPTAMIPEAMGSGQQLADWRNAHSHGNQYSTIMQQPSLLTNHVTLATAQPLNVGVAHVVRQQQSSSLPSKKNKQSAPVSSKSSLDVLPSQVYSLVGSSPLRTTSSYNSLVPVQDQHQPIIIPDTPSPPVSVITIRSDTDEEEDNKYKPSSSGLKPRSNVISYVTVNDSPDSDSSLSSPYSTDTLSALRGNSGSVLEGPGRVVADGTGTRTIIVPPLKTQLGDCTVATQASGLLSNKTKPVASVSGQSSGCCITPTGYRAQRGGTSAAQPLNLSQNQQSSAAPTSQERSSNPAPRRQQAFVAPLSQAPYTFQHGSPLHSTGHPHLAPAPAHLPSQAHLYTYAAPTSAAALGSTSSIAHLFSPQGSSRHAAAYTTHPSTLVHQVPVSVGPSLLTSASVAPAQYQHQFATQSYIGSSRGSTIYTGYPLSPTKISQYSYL
Sequence of Ephrin type-A receptor 5 (Homo sapiens) (P54756 whole entry): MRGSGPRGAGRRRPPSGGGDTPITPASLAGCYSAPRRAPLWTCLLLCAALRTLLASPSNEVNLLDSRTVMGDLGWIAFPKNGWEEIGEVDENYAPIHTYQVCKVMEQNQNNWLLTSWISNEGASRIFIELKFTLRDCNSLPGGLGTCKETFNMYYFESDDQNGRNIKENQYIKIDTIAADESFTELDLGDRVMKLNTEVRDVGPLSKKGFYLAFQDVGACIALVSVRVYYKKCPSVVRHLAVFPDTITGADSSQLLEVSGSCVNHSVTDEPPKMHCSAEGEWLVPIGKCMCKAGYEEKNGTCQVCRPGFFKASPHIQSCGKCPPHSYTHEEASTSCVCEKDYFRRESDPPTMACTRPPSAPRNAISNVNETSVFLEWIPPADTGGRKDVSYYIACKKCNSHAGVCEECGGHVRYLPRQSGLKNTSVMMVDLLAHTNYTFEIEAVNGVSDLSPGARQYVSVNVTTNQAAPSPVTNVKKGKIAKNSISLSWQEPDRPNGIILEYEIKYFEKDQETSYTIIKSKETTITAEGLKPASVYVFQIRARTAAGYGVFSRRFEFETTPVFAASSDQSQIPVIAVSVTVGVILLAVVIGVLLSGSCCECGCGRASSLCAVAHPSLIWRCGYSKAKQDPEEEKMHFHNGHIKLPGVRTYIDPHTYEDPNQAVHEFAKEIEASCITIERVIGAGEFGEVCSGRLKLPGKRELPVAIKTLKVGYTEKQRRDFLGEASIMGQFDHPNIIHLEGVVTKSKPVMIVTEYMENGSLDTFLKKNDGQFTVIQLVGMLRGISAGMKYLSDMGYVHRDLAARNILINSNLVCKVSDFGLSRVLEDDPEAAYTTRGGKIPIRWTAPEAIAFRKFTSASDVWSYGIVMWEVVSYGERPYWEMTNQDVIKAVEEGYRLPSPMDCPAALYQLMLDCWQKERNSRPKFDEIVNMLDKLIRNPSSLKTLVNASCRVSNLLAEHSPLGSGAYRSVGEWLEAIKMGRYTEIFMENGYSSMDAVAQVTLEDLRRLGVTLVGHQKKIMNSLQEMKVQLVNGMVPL
Sequence of Mitogen-activated protein kinase 14 (Homo sapiens) (Q16539 whole entry): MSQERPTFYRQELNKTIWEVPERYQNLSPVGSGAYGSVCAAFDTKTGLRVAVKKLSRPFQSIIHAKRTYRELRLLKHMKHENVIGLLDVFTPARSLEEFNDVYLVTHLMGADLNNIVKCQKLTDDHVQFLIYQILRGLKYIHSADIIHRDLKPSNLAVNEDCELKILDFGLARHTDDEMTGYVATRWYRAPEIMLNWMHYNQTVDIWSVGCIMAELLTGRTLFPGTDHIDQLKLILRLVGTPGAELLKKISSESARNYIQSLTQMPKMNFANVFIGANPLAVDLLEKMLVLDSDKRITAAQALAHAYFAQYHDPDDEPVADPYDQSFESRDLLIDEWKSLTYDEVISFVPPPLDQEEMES

Row | Structure (SMILES) | Activity [1] | Activity [5] | inhibition [6] [%] | inhibition [7] [%] | inhibition [8] [%] | inhibition [11] [%] | inhibition [13] [%] | inhibition [16] [%] | inhibition [17] [%] | inhibition [23] [%] | inhibition [2] | inhibition [4] | inhibition [10] | other results
1 | CNC(=O)c1cc(Oc2ccc(NC(=O)c3nc(SC)[nH]c3-c3ccc(F)cc3)cc2)ccn1 | inactive | inactive | 91 | 95 | 92 | 85 | 88 |  |  |  | Active | Active | Active | inhibition [3]: 94%; inhibition [9]: 90%; inhibition [12]: 84%
2 | CNC(=O)c1cc(Oc2ccc(NC(=O)c3nc(C(F)(F)F)sc3-c3ccc(F)cc3)cc2)ccn1 |  |  | 49 | 53 |  |  |  |  |  |  |  |  |  | inhibition [3]: 55%; inhibition [14]: 37%; inhibition [15]: 32%
3 | CNC(=O)c1cc(Oc2ccc(NC(=O)c3nc(SC)oc3-c3ccc(F)cc3)cc2)ccn1 | inactive | inactive | 55 |  |  |  |  | 55 | 63 | 65 | Active | Active | Active | inhibition [15]: 40%; inhibition [22]: 40%
4 | CNC(=O)c1cc(Oc2ccc(NC(=O)c3n[nH]nc3-c3ccc(F)cc3)cc2)ccn1 |  |  |  | 25 |  |  |  | 60 | 65 |  |  |  |  | inhibition [18]: 28%; inhibition [9]: 32%; inhibition [21]: 25%

Second part, led by results:

Row | Activity [1] | Activity [5] | inhibition [6] [%] | inhibition [7] [%] | inhibition [8] [%] | inhibition [11] [%] | inhibition [13] [%] | inhibition [16] [%] | inhibition [17] [%] | inhibition [23] [%] | Structure (SMILES) | inhibition [2] | inhibition [4] | inhibition [10] | other results
5 |  |  |  |  |  | 50 | 43 | 61 | 40 |  | CNC(=O)c1cc(Oc2ccc(NC(=O)c3nc(NC)sc3-c3ccc(F)cc3)cc2)ccn1 |  |  |  | 
6 |  |  |  |  |  |  | 25 |  |  | 25 | CSc1nc(C(=O)Nc2ccc(Oc3cc4cnn(C)c4cc3Br)cc2)c(-c2ccc(F)cc2)o1 |  |  |  | inhibition [18]: 19%; inhibition [19]: 21%; inhibition [14]: 37%; inhibition [20]: 21%; inhibition [21]: 14%; inhibition [22]: 21%; inhibition [24]: 14%; inhibition [25]: 19%
7 | inactive | inactive | 60 | 27 | 18 | 21 | 53 |  |  | 15 | CNC(=O)c1cc(Oc2ccc(NC(=O)c3nc(S(C)(=O)=O)sc3-c3ccc(F)cc3)cc2)ccn1 | Active | Active | Active | 
8 |  |  | 41 |  | 38 |  |  | 40 | 51 | 63 | CNC(=O)c1cc(Oc2ccc(NC(=O)c3nc(SC)oc3-c3ccc(F)cc3)cc2F)ccn1 |  |  |  | inhibition [26]: 40%
9 |  |  |  |  |  |  |  | 70 |  |  | CNC(=O)c1cc(Oc2ccc(NC(=O)c3nc(SC)n(CCN(C)C)c3-c3ccc(F)cc3)cc2)ccn1 |  |  |  | inhibition [27]: 34%; inhibition [28]: 64%
